Laboratory results from patent US10947285B2, “Compounds, compositions and uses thereof for improvement of bone disorders” (Amolyt Pharma, priority 2017, dated 2021).
Non-standard residues stand in square brackets, D forms with d. Residues, ends and D or L forms follow the SMILES beside them. Primed or numbered codes have the meaning given here. No end group written: not given here. *: point of attachment. PEG20′ = PEG20 chain (pegylated), attached via a cysteine; C16 diacid = O=C(O)CCCCCCCCCCCCCCC(=O)*; Arachidoyl = CCCCCCCCCCCCCCCCCCCC(=O)*; Stearoyl = CCCCCCCCCCCCCCCCCC(=O)*; Palmitoyl = CCCCCCCCCCCCCCCC(=O)*; Myristoyl = CCCCCCCCCCCCCC(=O)*

What was measured:
[1] = Pharmacokinetic of acylated HBD-1 fragment analogs in male Sprague Dawley rats after subcutaneous injection; format: in vivo; conditions: Table 24, sc, 1 μmol net peptide/kg
Procedure: The peptides were reconstituted in saline (0.9% NaCl). Three male Sprague Dawley rats (approximately 6 weeks of age) were used per group. Subcutaneous doses were administered into the right flank of each animal at the target dose level of 1 μmol net peptide/kg. Following dosing, serial whole blood samples (ca. 0.3 mL) were collected from retro-orbital sinus into K2EDTA treated containers. Following each blood sample collection, samples were placed into a cooling block at 4° C. Samples were collected prior to dosing then at 15 and 30 minutes then 1, 2, 4, 6, 8 and 24 hours post dose for subcutaneous injection. Blood samples were centrifuged at 3500×rpm for 10 minutes at 4° C. and resultant plasma aspirated off into clean fully, labelled tubes. Plasma samples were snap frozen following aspiration then stored at −80° C. The peptides were extracted with acetonitrile:water (75:25, v/v) and analyzed using developed LC-MS/MS methods as described in Example 9. The limits of detection of these methods are 0.003 nmol/mL for HBD1 (1-13) with palmitic acid at the N-terminus (C16:0), 0.0008 nmol/mL for HBD1 (3-11) with palmitic acid at the N-terminus (C16:0), 0.0070 nmol/mL for HBD1 (3-11) with stearic acid at the N-terminus (C18:0), and 0.0015 nmol/mL for HBD1 (3-11) with myristic acid at the N-terminus (C14:0), HBD1 (3-11) with arachidic acid at the N-terminus (C20:0), HBD1 (3-11) with palmitic diacid at the N-terminus (C16:0-diacid), HBD1 (3-11) with palmitic acid at the C-terminus (C16:0). All values below these limits of quantification were considered as zero.

[2] = test system: MC-3T3 E1 clone 4 (CL4) osteoblast cells; assay: in vitro osteoblast differentiation bioassay (stimulation of osteocalcin protein synthesis); format: cell-based
Procedure: Each peptide was tested in a biologic assay measuring its ability to stimulate differentiation of osteoblast cells over a 18-21 day interval (Table 8) or a 14-15 day interval (Table 9) as assessed by the stimulation of osteocalcin protein synthesis. MC-3T3 E1 clone 4 (CL4) osteoblast cells were obtained from ATCC (Manassas, Va., USA). Cells were cultured in α-MEM containing 10% fetal bovine serum (FBS; Thermo Fisher Scientific, Pittsburgh, Pa., USA). After confluency, culture medium was changed to differentiation medium (DM), which contained 10% FBS plus 50 μg/mL ascorbic acid and 4 mM β-glycerol phosphate, with or without a test peptide (1 μg/mL in Table 8 or 1 μmol/L in Table 9). Fresh DM, with or without test peptide, was applied every 72 hours. The cell monolayers were lysed in a modified radioimmunoprecipitation assay (RIPA) buffer. Total cellular protein in the lysates was determined using BCA (Thermo Fisher Scientific, Rockford, Ill., USA). Cell proteins are separated on SDS-PAGE gel and transferred on PVDF membrane for analysis. Osteocalcin detection was performed using anti-osteocalcin antibody at 1:200 dilution (Santa Cruz Biotechnology, Inc, Santa Cruz, Calif., USA) or at 1:3000 dilution (NPT Inc., Chapel Hill, N.C., USA) and visualized using enhanced chemiluminescence (Thermo Fisher Scientific, Rockford, Ill., USA).
The peptide was tested at different concentrations in a biologic assay measuring its ability to stimulate differentiation of osteoblast cells over a 18 day interval as assessed by the stimulation of osteocalcin protein synthesis. MC-3T3 E1 clone 4 (CL4) osteoblast cells were obtained from ATCC (Manassas, Va., USA). Cells were cultured in α-MEM containing 10% fetal bovine serum (FBS; Thermo Fisher Scientific, Pittsburgh, Pa., USA). After confluency, culture medium was changed to differentiation medium (DM), which contained 10% FBS plus 50 μg/mL ascorbic acid and 4 mM β-glycerol phosphate, with or without an ascending dose of the peptide from 0.1 μg/mL to 4 μg/mL. Fresh DM, with or without the peptide, was applied every 72 hours. The cell monolayers were lysed in a modified radioimmunoprecipitation assay (RIPA) buffer. Total cellular protein in the lysates was determined using BCA (Thermo Fisher Scientific, Rockford, Ill., USA). Cell proteins are separated on SDS-PAGE gel and transferred on PVDF membrane for analysis. Osteocalcin detection was performed using anti-osteocalcin antibody at 1:200 dilution (Santa Cruz Biotechnology, Inc, Santa Cruz, Calif., USA) and visualized using enhanced chemiluminescence (Thermo Fisher Scientific, Rockford, Ill., USA).
Each peptide was tested in a biologic assay measuring its ability to stimulate differentiation of osteoblast cells over a 15 day interval as assessed by the stimulation of osteocalcin protein synthesis. MC-3T3 E1 clone 4 (CL4) osteoblast cells were obtained from ATCC (Manassas, Va., USA). Cells were cultured in α-MEM containing 10% fetal bovine serum (FBS; Thermo Fisher Scientific, Pittsburgh, Pa., USA). After confluency, culture medium was changed to differentiation medium (DM), which contained 10% FBS plus 50 μg/mL ascorbic acid and 4 mM β-glycerol phosphate, with or without a test peptide (1 μg/mL). Fresh DM, with or without test peptide, was applied every 72 hours for 15 days. The cell monolayers were lysed in a modified radioimmunoprecipitation assay (RIPA) buffer. Total cellular protein in the lysates was determined using BCA (Thermo Fisher Scientific, Rockford, Ill., USA). Cell proteins are separated on SDS-PAGE gel and transferred on PVDF membrane for analysis. Osteocalcin detection was performed using anti-osteocalcin antibody at 1:200 dilution (Santa Cruz Biotechnology, Inc, Santa Cruz, Calif., USA) and visualized using enhanced chemiluminescence (Thermo Fisher Scientific, Rockford, Ill., USA). […]

[3] = Stability of HBD1 fragments in human plasma; format: in vitro ADME; conditions: 24 and 48 hours incubation at 37° C.
Procedure: The peptides were spiked at 1 μg/mL (peptide backbone) into pre-warmed human K2EDTA plasma (at 37° C.) and incubated for up to 48 hours. Aliquots of plasma were extracted at specific time points (0, 24 and 48 hours post spike). Extraction was performed with acetonitrile:water (75:25, v/v) for HBD1 (1-13), HBD1 (1-13) with palmitic acid at the N-terminus (C16:0), HBD1 (3-11) with palmitic acid at the N-terminus (C16:0)) and HBD1 (3-11) with stearic acid at the N-terminus (C18:0) or with acetonitrile:water:formic acid (75:25:0.1, v/v/v) for HBD1 (3-11) and cyclic HBD1 (3-11). The peptides were analyzed using developed LC (C18 reverse phase column)—positive ion electrospray MS/MS methods specific to each peptide. The peak area at each time point was expressed as a percentage of the value obtained for the t=0 minutes time point.

[4] = Table 17, PEGylated fragments, 2 μg/mL, 18-21 day interval

| Compound | Tlast (last time point with detectable peptide) [1] [h] | Fold increase vs DM ± SE [2, 4] [fold] | other results |
| --- | --- | --- | --- |
| 64 (KHHLGLEEPKKLR; not fully specified; MOD_RES (13)..(13) Pegylated) [compound 64] | – | 2.2 ± 0.4 | – |
| CCCCCCCCCCCCCCCC(=O)N[C@@H](CCCCN)C(=O)N[C@@H](Cc1c[nH]cn1)C(=O)N[C@@H](Cc1c[nH]cn1)C(=O)N[C@@H](CC(C)C)C(=O)NCC(=O)N[C@@H](CC(C)C)C(=O)N[C@@H](CCC(=O)O)C(=O)N[C@@H](CCC(=O)O)C(=O)N1CCC[C@H]1C(=O)N[C@@H](CCCCN)C(=O)N[C@@H](CCCCN)C(=O)N[C@@H](CC(C)C)C(=O)N[C@@H](CCCNC(=N)N)C(=O)O [compound 78] (Palmitoyl-KHHLGLEEPKKLR-OH) | 8 | – | – |
| 66 (HHLGLEEPKK; not fully specified; MOD_RES (10)..(10) Pegylated) [compound 66] | – | 2.2 ± 0.2 | – |
| 63 ([PEG20′]CKHHLGLEEPKKLR; not fully specified (some residues); printed as PEG20-C-KHHLGLEEPKKLR) [compound 63] | – | 1.4 ± 0.3 | – |
| 67 ([PEG20′]CHLGLEEPKK; not fully specified (some residues); printed as PEG20-C-HLGLEEPKK) [compound 67] | – | 1.9 ± 0.2 | – |
| 65 ([PEG20′]CHHLGLEEPKK; not fully specified (some residues); printed as PEG20-C-HHLGLEEPKK) [compound 65] | – | 1.4 ± 0.1 | – |
| CC(C)C[C@@H]1NC(=O)CNC(=O)[C@H](CC(C)C)NC(=O)[C@H](Cc2c[nH]cn2)NC(=O)[C@H](CCCCN)NC(=O)[C@H](CCCCN)NC(=O)[C@@H]2CCCN2C(=O)[C@H](CCC(=O)O)NC(=O)[C@H](CCC(=O)O)NC1=O [compound 77] (cyclo(EEPKKHLGL)) | – | – | stability in human plasma (in words) [3]: plasma stability profile similar to that of the corresponding unconjugated linear peptide HBD1 (3-11) |

The next lines start with results.

| Tlast (last time point with detectable peptide) [1] [h] | Compound | Fold increase vs DM ± SE [2, 4] [fold] | other results |
| --- | --- | --- | --- |
| 8 | CCCCCCCCCCCCCCCCCCCC(=O)N[C@@H](Cc1c[nH]cn1)C(=O)N[C@@H](CC(C)C)C(=O)NCC(=O)N[C@@H](CC(C)C)C(=O)N[C@@H](CCC(=O)O)C(=O)N[C@@H](CCC(=O)O)C(=O)N1CCC[C@H]1C(=O)N[C@@H](CCCCN)C(=O)N[C@@H](CCCCN)C(=O)O [compound 74] (Arachidoyl-HLGLEEPKK-OH; C-terminus assumed) | – | – |
| 8 | CCCCCCCCCCCCCCCCCC(=O)N[C@@H](Cc1c[nH]cn1)C(=O)N[C@@H](CC(C)C)C(=O)NCC(=O)N[C@@H](CC(C)C)C(=O)N[C@@H](CCC(=O)O)C(=O)N[C@@H](CCC(=O)O)C(=O)N1CCC[C@H]1C(=O)N[C@@H](CCCCN)C(=O)N[C@@H](CCCCN)C(=O)O [compound 73] (Stearoyl-HLGLEEPKK-OH) | – | stability in human plasma (in words) [3]: plasma stability profile similar to that of the corresponding unconjugated linear peptide HBD1 (3-11); Fold increase vs DM ± SE ([2]; Table 19, dose 1.0 μM, 18 day interval): 3.46 ± 0.47 fold; Fold increase vs DM ± SE ([2]; Table 19, dose 2.0 μM, 18 day interval): 4.48 ± 0.07 fold; Fold increase vs DM ± SE ([2]; Table 19, dose 3.0 μM, 18 day interval): 5.66 ± 0.45 fold |
| 6 | CCCCCCCCCCCCCC(=O)N[C@@H](Cc1c[nH]cn1)C(=O)N[C@@H](CC(C)C)C(=O)NCC(=O)N[C@@H](CC(C)C)C(=O)N[C@@H](CCC(=O)O)C(=O)N[C@@H](CCC(=O)O)C(=O)N1CCC[C@H]1C(=O)N[C@@H](CCCCN)C(=O)N[C@@H](CCCCN)C(=O)O [compound 71] (Myristoyl-HLGLEEPKK-OH; C-terminus assumed) | – | – |
| 8 | CC(C)C[C@H](NC(=O)CNC(=O)[C@H](CC(C)C)NC(=O)[C@H](Cc1c[nH]cn1)NC(=O)CCCCCCCCCCCCCCC(=O)O)C(=O)N[C@@H](CCC(=O)O)C(=O)N[C@@H](CCC(=O)O)C(=O)N1CCC[C@H]1C(=O)N[C@@H](CCCCN)C(=O)N[C@@H](CCCCN)C(=O)O [compound 75] ({C16 diacid}-HLGLEEPKK-OH; C-terminus assumed) | – | – |
| 8 | CCCCCCCCCCCCCCCC(=O)NCCCC[C@H](NC(=O)[C@H](CCCCN)NC(=O)[C@@H]1CCCN1C(=O)[C@H](CCC(=O)O)NC(=O)[C@H](CCC(=O)O)NC(=O)[C@H](CC(C)C)NC(=O)CNC(=O)[C@H](CC(C)C)NC(=O)[C@@H](N)Cc1c[nH]cn1)C(=O)O [compound 76] (H-HLGLEEPKK(Palmitoyl)-OH; N-terminus and C-terminus assumed) | – | – |
| 8 | CCCCCCCCCCCCCCCC(=O)N[C@@H](Cc1c[nH]cn1)C(=O)N[C@@H](CC(C)C)C(=O)NCC(=O)N[C@@H](CC(C)C)C(=O)N[C@@H](CCC(=O)O)C(=O)N[C@@H](CCC(=O)O)C(=O)N1CCC[C@H]1C(=O)N[C@@H](CCCCN)C(=O)N[C@@H](CCCCN)C(=O)O [compound 72] (Palmitoyl-HLGLEEPKK-OH) | – | stability in human plasma (in words) [3]: plasma stability profile similar to that of the corresponding unconjugated linear peptide HBD1 (3-11) |
